Measurements as given in patent publication US5175100A, “Stereospecific resolution by hydrolysis of esters of 2-arylpropionic acids by liver enzymes” (Rhone-Poulenc, Inc., priority 1991, dated 1992).

Tests used:
Assay type in all cases: biochemical
[1] = test system: Liver acetone powder from Goat; assay: Hydrolysis of ketoprofen methyl ester by goat liver acetone powder
Description: (§1) A solution of 50 mg of ketoprofen methyl ester in 0.2 ml of ethanol was added to 10 mg of each of liver acetone powder from various animal sources (described in Table 1) in 5 ml of 0.1M potassium phosphate buffer (pH 7.0) After shaking at room temperature for 24 hours, the reaction mixtures were acidified to pH 2.0 with 6(N) HCl and extracted with 10 ml of ethyl acetate. A portion of the ethyl acetate extract was analyzed by HPLC on a Partisil 5 ODS-3 RAC column (9.4 mm×100 mm, Whatman) using a mixture of methanol and 10 mM ammonium dihydrogen phospate (9:1) and monitored by UV at 254 nm to determine the percentages of acid produced in the reaction.
(§2) To determine the percentage of R- and S-acid, a portion of the ethyl acetate extract was converted to the amide derivative of the acid produced with R(+)-1-phenylethylamine as follows. The ethyl acetate extract (5 ml) was dried over sodium sulfate, filtered and cooled to 0° C. To the cold solution was added 0.2 ml of N-methylmorpholine followed by 0.2 ml of isobutyl chloroformate. After gentle shaking at 0° C. for 10 minutes, 0.2 ml of R(+)-1-phenylethylamine was added and the shaking was continued at 0° C. for 5 minutes and at room temperature for another 5 minutes. The reaction mixture was washed successively with water (5 ml), 1(N) HCl (5 ml), and water (5 ml) to provide the amide derivative in ethyl acetate solution. The ethyl acetate solution of the amide derivative was then analyzed by HPLC on the same column and same solvent mixture but with a different composition, i.e., a ratio of 6:4, and monitored by UV to determine the percentages of R- acid and S-acids produced by hydrolysis. The enantiomeric excess (EE) is defined as the difference in percent between the percent R- acid and the percent S-acid, the higher enantiomer being reported in the parenthesis in Table I.

[2] = test system: Liver acetone powder from Porcine; assay: Hydrolysis of ketoprofen methyl ester by porcine liver acetone powder; settings: Porcine powder 10 mg, 50 mg ester, pH 7.0, room temperature, 24 hours
Description: as §1

[3] = test system: Liver acetone powder from Trout; assay: Hydrolysis of ketoprofen methyl ester by trout liver acetone powder; settings: Trout powder 10 mg, 50 mg ester, pH 7.0, room temperature, 24 hours
Description: as §1

[4] = test system: Liver acetone powder from Dog; assay: Hydrolysis of ketoprofen esters by dog liver acetone powder
Description: as §1, §2
(§3) Several esters of ketoprofen (0.2 millimole) with various alkyl groups of varying chain length were hydrolyzed using liver acetone powders from bovine, calf and dog by the procedure described in Example 1. The reaction mixtures were analyzed by the same procedures as described in Example 1 and the results obtained are summarized in Table II.

[5] = test system: Liver acetone powder from Rat; assay: Hydrolysis of ketoprofen methyl ester by rat liver acetone powder
Description: as §1, §2

[6] = test system: Liver acetone powder from Lemon Shark; assay: Hydrolysis of ketoprofen methyl ester by lemon shark liver acetone powder; settings: Lemon Shark powder 10 mg, 50 mg ester, pH 7.0, room temperature, 24 hours
Description: as §1

[7] = test system: Liver acetone powder from Sheep; assay: Hydrolysis of ketoprofen methyl ester by sheep liver acetone powder
Description: as §1, §2

[8] = test system: Liver acetone powder from Cat; assay: Hydrolysis of ketoprofen methyl ester by cat liver acetone powder
Description: as §1, §2

[9] = test system: Liver acetone powder from Eel**; assay: Hydrolysis of ketoprofen methyl ester by eel (Electrophorous electricus) liver acetone powder; settings: Eel (Electrophorous electricus) powder 10 mg, 50 mg ester, pH 7.0, room temperature, 24 hours
Description: as §1

[10] = test system: Liver acetone powder from Turtle; assay: Hydrolysis of ketoprofen methyl ester by turtle liver acetone powder; settings: Turtle powder 10 mg, 50 mg ester, pH 7.0, room temperature, 24 hours
Description: as §1

[11] = test system: Liver acetone powder from Seal; assay: Hydrolysis of ketoprofen methyl ester by seal liver acetone powder
Description: as §1, §2

[12] = test system: Liver acetone powder from Horse; assay: Hydrolysis of ketoprofen methyl ester by horse liver acetone powder
Description: as §1, §2

[13] = test system: Liver acetone powder from Eel*; assay: Hydrolysis of ketoprofen methyl ester by eel (Anguilla anguilla) liver acetone powder; settings: Eel (Anguilla anguilla) powder 10 mg, 50 mg ester, pH 7.0, room temperature, 24 hours
Description: as §1

[14] = test system: Liver acetone powder from Calf; assay: Hydrolysis of ketoprofen esters by calf liver acetone powder
Description: as §1, §2, §3

[15] = test system: Liver acetone powder from Rabbit; assay: Hydrolysis of ketoprofen methyl ester by rabbit liver acetone powder
Description: as §1, §2

[16] = test system: Liver acetone powder from Bovine; assay: Hydrolysis of ketoprofen esters by bovine liver acetone powder
Description: as §1, §2, §3

[17] = test system: Liver acetone powder from Lungfish; assay: Hydrolysis of ketoprofen methyl ester by lungfish liver acetone powder; settings: Lungfish powder 10 mg, 50 mg ester, pH 7.0, room temperature, 24 hours
Description: as §1

[18] = test system: Liver acetone powder from Mouse; assay: Hydrolysis of ketoprofen methyl ester by mouse liver acetone powder
Description: as §1, §2

[19] = test system: Liver acetone powder from Guinea Pig; assay: Hydrolysis of ketoprofen methyl ester by guinea pig liver acetone powder; settings: Guinea Pig powder 10 mg, 50 mg ester, pH 7.0, room temperature, 24 hours
Description: as §1

[20] = test system: Liver acetone powder from Salmon; assay: Hydrolysis of ketoprofen methyl ester by salmon liver acetone powder; settings: Salmon powder 10 mg, 50 mg ester, pH 7.0, room temperature, 24 hours
Description: as §1

[21] = test system: Liver acetone powder from Pigeon; assay: Hydrolysis of ketoprofen methyl ester by pigeon liver acetone powder
Description: as §1, §2

[22] = test system: Liver acetone powder from Chicken; assay: Hydrolysis of ketoprofen methyl ester by chicken liver acetone powder
Description: as §1, §2

[23] = Goat powder 10 mg, 50 mg ester, pH 7.0, room temperature, 24 hours
[24] = Dog powder 10 mg, 50 mg ester, pH 7.0, room temperature, 24 hours
[25] = Dog powder, 0.2 millimole ester, procedure of Example 1
[26] = Rat powder 10 mg, 50 mg ester, pH 7.0, room temperature, 24 hours
[27] = Sheep powder 10 mg, 50 mg ester, pH 7.0, room temperature, 24 hours
[28] = Cat powder 10 mg, 50 mg ester, pH 7.0, room temperature, 24 hours
[29] = Seal powder 10 mg, 50 mg ester, pH 7.0, room temperature, 24 hours
[30] = Horse powder 10 mg, 50 mg ester, pH 7.0, room temperature, 24 hours
[31] = Calf powder 10 mg, 50 mg ester, pH 7.0, room temperature, 24 hours
[32] = Calf powder, 0.2 millimole ester, procedure of Example 1
[33] = Rabbit powder 10 mg, 50 mg ester, pH 7.0, room temperature, 24 hours
[34] = Bovine powder 10 mg, 50 mg ester, pH 7.0, room temperature, 24 hours
[35] = Bovine powder, 0.2 millimole ester, procedure of Example 1
[36] = Mouse powder 10 mg, 50 mg ester, pH 7.0, room temperature, 24 hours
[37] = Pigeon powder 10 mg, 50 mg ester, pH 7.0, room temperature, 24 hours
[38] = Chicken powder 10 mg, 50 mg ester, pH 7.0, room temperature, 24 hours

SMILES: COC(=O)C(C)c1cccc(C(=O)c2ccccc2)c1 (stereo not shown) [Methyl Ester of Ketoprofen, ketoprofen methyl ester]
- Percentage of Acid R-acid [1, 23]: 42.3%
- Percentage of Acid S-acid [1, 23]: 57.7%
- Percentage of acid [1, 23]: 15.5%
- Percentage EE of acid (R or S) ([1]; Goat powder, Table 1, higher enantiomer (S)): 15.4%
- Percentage of acid [2]: 0.9%
- Percentage of acid [3]: 0.7%
- Percentage of Acid R-acid [4, 24]: 87.1%
- Percentage of Acid S-acid [4, 24]: 12.9%
- Percentage of acid [4, 24]: 8.0%
- Acid Produced (%) [4, 25]: 6.2%
- EE(%) of R-Acid [4, 25]: 76.6%
- Percent of Acid R-Acid [4, 25]: 88.3%
- Percent of Acid S-Acid [4, 25]: 11.7%
- Percentage EE of acid (R or S) ([4]; Dog powder, Table 1, higher enantiomer (R)): 74.2%
- Percentage of Acid R-acid [5, 26]: 52.7%
- Percentage of Acid S-acid [5, 26]: 47.3%
- Percentage of acid [5, 26]: 7.5%
- Percentage EE of acid (R or S) ([5]; Rat powder, Table 1, higher enantiomer (R)): 5.4%
- Percentage of acid [6]: 0.6%
- Percentage of Acid R-acid [7, 27]: 46.5%
- Percentage of Acid S-acid [7, 27]: 53.5%
- Percentage of acid [7, 27]: 18.1%
- Percentage EE of acid (R or S) ([7]; Sheep powder, Table 1, higher enantiomer (S)): 7.0%
- Percentage of Acid R-acid [8, 28]: 64.1%
- Percentage of Acid S-acid [8, 28]: 35.9%
- Percentage of acid [8, 28]: 7.2%
- Percentage EE of acid (R or S) ([8]; Cat powder, Table 1, higher enantiomer (R)): 28.2%
- Percentage of acid [9]: 1.1%
- Percentage of acid [10]: 0.6%
- Percentage of Acid R-acid [11, 29]: 48.9%
- Percentage of Acid S-acid [11, 29]: 51.1%
- Percentage of acid [11, 29]: 14.3%
- Percentage EE of acid (R or S) ([11]; Seal powder, Table 1, higher enantiomer (S)): 2.2%
- Percentage of Acid R-acid [12, 30]: 62.7%
- Percentage of Acid S-acid [12, 30]: 37.3%
- Percentage of acid [12, 30]: 24.1%
- Percentage EE of acid (R or S) ([12]; Horse powder, Table 1, higher enantiomer (R)): 25.4%
- Percentage of acid [13]: 3.0%
- Percentage of Acid R-acid [14, 31]: 71.6%
- Percentage of Acid S-acid [14, 31]: 28.4%
- Percentage of acid [14, 31]: 5.7%
- Acid Produced (%) [14, 32]: 7.3%
- EE(%) of R-Acid [14, 32]: 45.6%
- Percent of Acid R-Acid [14, 32]: 72.8%
- Percent of Acid S-Acid [14, 32]: 27.2%
- Percentage EE of acid (R or S) ([14]; Calf powder, Table 1, higher enantiomer (R)): 43.2%
- Percentage of Acid R-acid [15, 33]: 46.1%
- Percentage of Acid S-acid [15, 33]: 53.9%
- Percentage of acid [15, 33]: 54.9%
- Percentage EE of acid (R or S) ([15]; Rabbit powder, Table 1, higher enantiomer (S)): 7.8%
- Percentage of Acid R-acid [16, 34]: 71.2%
- Percentage of Acid S-acid [16, 34]: 28.8%
- Percentage of acid [16, 34]: 4.3%
- Acid Produced (%) [16, 35]: 4.4%
- EE(%) of R-Acid [16, 35]: 47.2%
- Percent of Acid R-Acid [16, 35]: 73.6%
- Percent of Acid S-Acid [16, 35]: 26.4%
- Percentage EE of acid (R or S) ([16]; Bovine powder, Table 1, higher enantiomer (R)): 42.4%
- Percentage of acid [17]: 3.2%
- Percentage of Acid R-acid [18, 36]: 49.0%
- Percentage of Acid S-acid [18, 36]: 51.0%
- Percentage of acid [18, 36]: 9.4%
- Percentage EE of acid (R or S) ([18]; Mouse powder, Table 1, higher enantiomer (R)): 2.0%
- Percentage of acid [19]: 0.8%
- Percentage of acid [20]: 0.6%
- Percentage of Acid R-acid [21, 37]: 66.7%
- Percentage of Acid S-acid [21, 37]: 33.3%
- Percentage of acid [21, 37]: 18.0%
- Percentage EE of acid (R or S) ([21]; Pigeon powder, Table 1, higher enantiomer (R)): 33.4%
- Percentage of Acid R-acid [22, 38]: 52.7%
- Percentage of Acid S-acid [22, 38]: 47.3%
- Percentage of acid [22, 38]: 8.1%
- Percentage EE of acid (R or S) ([22]; Chicken powder, Table 1, higher enantiomer (R)): 5.4%

SMILES: CCCOC(=O)C(C)c1cccc(C(=O)c2ccccc2)c1 (stereo not shown) [C-3]
- EE(%) of R-Acid [4, 25]: 68.2%
- Percent of Acid R-Acid [4, 25]: 84.1%
- Percent of Acid S-Acid [4, 25]: 15.9%
- EE(%) of R-Acid [14, 32]: 38.2%
- Percent of Acid R-Acid [14, 32]: 69.1%
- Percent of Acid S-Acid [14, 32]: 30.9%
- EE(%) of R-Acid [16, 35]: 41.4%
- Percent of Acid R-Acid [16, 35]: 70.7%
- Percent of Acid S-Acid [16, 35]: 29.3%

SMILES: CCCCOC(=O)C(C)c1cccc(C(=O)c2ccccc2)c1 (stereo not shown) [C-4]
- EE(%) of R-Acid [4, 25]: 68.8%
- Percent of Acid R-Acid [4, 25]: 84.4%
- Percent of Acid S-Acid [4, 25]: 15.6%
- EE(%) of R-Acid [14, 32]: 38.2%
- Percent of Acid R-Acid [14, 32]: 65.6%
- Percent of Acid S-Acid [14, 32]: 34.4%
- EE(%) of R-Acid [16, 35]: 33.4%
- Percent of Acid R-Acid [16, 35]: 66.7%
- Percent of Acid S-Acid [16, 35]: 33.3%
